Experimental data reported in patent US20230212122A1, “MITOCHONDRIAL TARGETING COMPOUNDS FOR THE TREATMENT OF ASSOCIATED DISEASES” (The Regents of the University of Michigan, priority 2020, published 2023).

What was measured:
UM16 cell line [1] = test: Proteomics, protein fold change; type: cell-based; settings: for Fold change: 5 μM
Description: (§1) Several proteins participating in energy metabolism were dramatically changed.

UM16 cell line [2] = test: GSEA of proteomics data ([…], KEGG pathways); type: cell-based; settings: for ES / NES: 5 μM, 24 hours
Description: as §1

[3] = HALLMARK_ADIPOGENESIS, FDR q-val 0.644
[4] = HALLMARK_ALLOGRAFT_REJECTION, FDR q-val 0.521
[5] = HALLMARK_ANDROGEN_RESPONSE, FDR q-val 0.915
[6] = HALLMARK_APOPTOSIS, FDR q-val 0.666
[7] = HALLMARK_BILE_ACID_METABOLISM, FDR q-val 0.245
[8] = HALLMARK_CHOLESTEROL_HOMEOSTASIS, FDR q-val 0.314
[9] = HALLMARK_COAGULATION, FDR q-val 0.004
[10] = HALLMARK_COMPLEMENT, FDR q-val 0.425
[11] = HALLMARK_DNA_REPAIR, FDR q-val 0.454
[12] = HALLMARK_E2F_TARGETS, FDR q-val 0.077
[13] = HALLMARK_EPITHELIAL_MESENCHYMAL_TRANSITION, FDR q-val 0.456
[14] = HALLMARK_G2M_CHECKPOINT, FDR q-val 0.107
[15] = HALLMARK_GLYCOLYSIS, FDR q-val 0.489
[16] = HALLMARK_HEME_METABOLISM, FDR q-val 0.552

With `CCOC(=O)[C@@H]1CCCN(S(=O)(=O)c2ccc(S(=O)(=O)N(CC)CC)cc2)C1` [DX2-201, ethyl (R)-1-((4-(N,N-diethylsulfamoyl)phenyl)sulfonyl)piperidine-3-carboxylate] the “Serine protease 23, nuclear receptor family 2 group F member 6, protein NDRG1 (proteomic results)” value (UM16 cell line [1]) was “upregulated”, the “Glycerol kinase fold change” value (UM16 cell line [1]; 24 hours, top upregulated) was 3 fold and the “dihydrolilpoyl dehudrogenase fold change” value (UM16 cell line [1]; downregulated, TCA cycle enzyme) was 0.684. For the same compound, the Fold change (UM16 cell line [1]; protein ABTB2, 24 hours) was 0.778, the Fold change (UM16 cell line [1]; protein ALAS1, 24 hours) was 1.393 and the Fold change (UM16 cell line [1]; protein ANKH, 24 hours) was 0.777. It also gave a Fold change (UM16 cell line [1]; protein ANKRD54, 24 hours) of 0.799, a Fold change (UM16 cell line [1]; protein AP1S2, 24 hours) of 0.792 and a Fold change (UM16 cell line [1]; protein AP2S1, 24 hours) of 0.781. For the same compound, the Fold change (UM16 cell line [1]; protein APBB1IP, 24 hours) was 1.458, the Fold change (UM16 cell line [1]; protein BTBD10, 24 hours) was 1.651 and the Fold change (UM16 cell line [1]; protein CCDC88C, 24 hours) was 0.785. The Fold change (UM16 cell line [1]; protein CCNT2, 24 hours) was 1.65, the Fold change (UM16 cell line [1]; protein CDC42BPA, 24 hours) was 1.514 and the Fold change (UM16 cell line [1]; protein CDCA5, 24 hours) was 0.761. The Fold change (UM16 cell line [1]; protein CMTM4, 24 hours) was 1.678, the Fold change (UM16 cell line [1]; protein CYP51A1, 24 hours) was 1.636 and the Fold change (UM16 cell line [1]; protein DHTKD1, 24 hours) was 1.384. For the same compound, the Fold change (UM16 cell line [1]; protein DLD, 24 hours) was 0.684, the Fold change (UM16 cell line [1]; protein DOLPP1, 24 hours) was 0.731 and the Fold change (UM16 cell line [1]; protein DOPEY2, 24 hours) was 0.797. For the same compound, the Fold change (UM16 cell line [1]; protein DTNBP1, 24 hours) was 0.794, the Fold change (UM16 cell line [1]; protein FAH, 24 hours) was 0.785 and the Fold change (UM16 cell line [1]; protein FAU, 24 hours) was 0.742. The Fold change (UM16 cell line [1]; protein Hist1h1d, 24 hours) was 0.703, the Fold change (UM16 cell line [1]; protein KIAA0355, 24 hours) was 1.48 and the Fold change (UM16 cell line [1]; protein MED27, 24 hours) was 0.79. It also gave a Fold change (UM16 cell line [1]; protein MROH1, 24 hours) of 1.386, a Fold change (UM16 cell line [1]; protein NAA35, 24 hours) of 1.377 and a Fold change (UM16 cell line [1]; protein NDRG1, 24 hours) of 1.55. The Fold change (UM16 cell line [1]; protein NOL8, 24 hours) was 0.771, the Fold change (UM16 cell line [1]; protein NR2F6, 24 hours) was 1.842 and the Fold change (UM16 cell line [1]; protein NRGN, 24 hours) was 0.795. It also gave a Fold change (UM16 cell line [1]; protein OGFOD2, 24 hours) of 0.754, a Fold change (UM16 cell line [1]; protein OSTC, 24 hours) of 1.418 and a Fold change (UM16 cell line [1]; protein PDCL, 24 hours) of 0.752. It also gave a Fold change (UM16 cell line [1]; protein PLP2, 24 hours) of 0.763, a Fold change (UM16 cell line [1]; protein PRSS23, 24 hours) of 1.844 and a Fold change (UM16 cell line [1]; protein RCCD1, 24 hours) of 1.443. It also gave a Fold change (UM16 cell line [1]; protein RDH13, 24 hours) of 1.429, a Fold change (UM16 cell line [1]; protein RRM2B, 24 hours) of 1.395 and a Fold change (UM16 cell line [1]; protein RUSC1, 24 hours) of 0.771. The Fold change (UM16 cell line [1]; protein SCAMP2, 24 hours) was 0.729, the Fold change (UM16 cell line [1]; protein SLC25A15, 24 hours) was 0.796 and the Fold change (UM16 cell line [1]; protein TADA3, 24 hours) was 1.45. The Fold change (UM16 cell line [1]; protein TCEAL1, 24 hours) was 1.382, the Fold change (UM16 cell line [1]; protein TMEM55B, 24 hours) was 1.664 and the Fold change (UM16 cell line [1]; protein UQCC3, 24 hours) was 1.635. It also gave a Fold change (UM16 cell line [1]; protein ZBTB21, 24 hours) of 0.709, a Fold change (UM16 cell line [1]; protein gk, 24 hours) of 3.009 and a Fold change (UM16 cell line [1]; protein krt17, 24 hours) of 1.386. For the same compound, the Fold change (UM16 cell line [1]; protein pop7, 24 hours) was 0.736, the Fold change (UM16 cell line [1]; protein scaf8, 24 hours) was 1.508 and the “TCA cycle (proteomic results)” value (UM16 cell line [2]) was “suppressed”. For the same compound, the “hypoxia pathways, bile acid metabolism, cholesterol homoeostasis and glycolysis (proteomic results)” value (UM16 cell line [2]) was “upregulated”, the ES (UM16 cell line [2]; [3]) was 0.317 and the NES (UM16 cell line [2]; [3]) was 1.025. For the same compound, the ES (UM16 cell line [2]; [4]) was −0.287, the NES (UM16 cell line [2]; [4]) was −1.082 and the ES (UM16 cell line [2]; [5]) was 0.259. The NES (UM16 cell line [2]; [5]) was 0.760, the ES (UM16 cell line [2]; [6]) was 0.335 and the NES (UM16 cell line [2]; [6]) was 1.042. For the same compound, the ES (UM16 cell line [2]; [7]) was 0.523, the NES (UM16 cell line [2]; [7]) was 1.465 and the ES (UM16 cell line [2]; [8]) was 0.493. It also gave an NES (UM16 cell line [2]; [8]) of 1.407, an ES (UM16 cell line [2]; [9]) of 0.636 and an NES (UM16 cell line [2]; [9]) of 1.813. For the same compound, the ES (UM16 cell line [2]; [10]) was 0.401, the NES (UM16 cell line [2]; [10]) was 1.235 and the ES (UM16 cell line [2]; [11]) was 0.381. It also gave an NES (UM16 cell line [2]; [11]) of 1.239, an ES (UM16 cell line [2]; [12]) of −0.349 and an NES (UM16 cell line [2]; [12]) of −1.559. For the same compound, the ES (UM16 cell line [2]; [13]) was 0.449, the NES (UM16 cell line [2]; [13]) was 1.312 and the NES (UM16 cell line [2]; HALLMARK_ESTROGEN_RESPONSE_EARLY, FDR q-val 0.813) was 0.929. For the same compound, the ES (UM16 cell line [2]; [14]) was −0.313, the NES (UM16 cell line [2]; [14]) was −1.421 and the ES (UM16 cell line [2]; [15]) was 0.399. For the same compound, the NES (UM16 cell line [2]; [15]) was 1.281, the ES (UM16 cell line [2]; [16]) was 0.376 and the NES (UM16 cell line [2]; [16]) was 1.150. For the same compound, the ES (UM16 cell line [2]; HALLMARK_HYPOXIA, FDR q-val 0.003) was 0.595.
